These results are taken from ChEMBL document CHEMBL1131308, “Synthesis and biological activity of 4-amino-7-oxo-substituted analogues of 5-deaza-5,6,7,8-tetrahydrofolic acid and 5,10-dideaza-5, 6,7,8-tetrahydrofolic acid” (J Med Chem, 1998).

Converted amounts (≈) assume the structure as drawn.

This assay deals with CCRF-CEM. As to the kind of experiment: In vitro inhibitory activity against CCRF-CEM human leukemia cells using cytotoxicity assay. Type of assay: functional, cell-based.
One may read the IC50 as the concentration at which inhibition is half-maximal. A high value points to a need for much substance. For `COC(=O)c1ccc(NCC2Cc3c(N)nc(N)nc3NC2=O)cc1` (centres undefined), the IC50 is more than 20 µg/mL.

Compound `COC(=O)c1ccc(CCC2Cc3c(N)nc(N)nc3NC2=O)cc1` (centres undefined) displayed an IC50 of more than 20 µg/mL.

As to `Nc1nc(N)c2c(n1)NC(=O)C(CNc1ccc(C(=O)O)cc1)C2` (centres undefined), the IC50 was more than 20 µg/mL.

On to `Nc1nc(N)c2c(n1)NC(=O)C(CNc1ccc(C(=O)NC(CCC(=O)O)C(=O)O)cc1)C2` (centres undefined), for which the IC50 was more than 20 µg/mL.

For `CN(CC1Cc2c(N)nc(N)nc2NC1=O)c1ccc(C(=O)NC(CCC(=O)O)C(=O)O)cc1` (centres undefined), the IC50 is more than 20 µg/mL.

The compound `Nc1nc(N)c2c(n1)NC(=O)C(CCc1ccc(C(=O)O)cc1)C2` (centres undefined) displayed an IC50 of 6.7 µg/mL (≈ 20.5 µM).

Take `CN(CC1Cc2c(N)nc(N)nc2NC1=O)c1ccc(C(=O)O)cc1` (centres undefined): the IC50 was more than 20 µg/mL.

Regarding `Nc1nc(N)c2c(n1)NC(=O)C(CCc1ccc(C(=O)NC(CCC(=O)O)C(=O)O)cc1)C2` (centres undefined), it took 39.2 µg/mL (≈ 85.9 µM) to reach half-maximal inhibition (IC50).

In turn, `COC(=O)c1ccc(N(C)CC2Cc3c(N)nc(N)nc3NC2=O)cc1` (centres undefined) registered an IC50 of more than 20 µg/mL.
